Reference: publication PMC5856391, “Critical role of C-terminal residues of the Alzheimer's associated β-amyloid protein in mediating antiviral activity and modulating viral and bacterial interactions with neutrophils” (PLoS ONE, 2018)
Entries after “also recorded” stand apart in the source; their conditions may differ.

Experiments:
[1] = system: Escherichia coli (E.coli); assay: Aggregation of rhodamine labeled E.coli (fluorescent microscopy); details: rhodamine E. coli preincubated with 50ug/ml peptide for 1 hour at 37°C, fluorescent microscope; three experiments; Fig 6
IAV [2] = assay: Viral aggregation by electron microscopy; design: species or system influenza A virus; details: 2 or 8μg/ml of peptide; LPS control 10 EU/ml; representative of 3 experiments; Fig 2C
IAV [3] = assay: Confocal microscopy of Alexa Fluor 594 labeled IAV on MDCK cells; format: cell-based, influenza A virus; details: Alexa Fluor 594 labeled IAV pre-incubated with peptide 30 minutes at 37°C, then MDCK cells 45 min; 3 experiments; Fig 3
[4] = system: Philippines 82/H3N2 (Phil82) influenza A virus; format: cell-based
human neutrophils [5] = assay: Neutrophil uptake of rhodamine labeled E.coli; format: cell-based; details: for Neutrophil uptake of E.coli: rhodamine labeled E.coli pre-incubated with peptide, flow cytometry, 5 experiments, separate donors, Fig 7
human neutrophils [6] = assay: IAV uptake by neutrophils (flow cytometry); format: cell-based; details: FITC-IAV (Phil82) treated with peptide 30 min at 37°C, then neutrophils 45 minutes at 37°C, trypan blue quench, 5 experiments, separate donors
human neutrophils [7] = format: cell-based; details: compared to IAV alone, 5 experiments
IAV [8] = assay: Viral aggregation by light absorbance at 350 nm; design: species or system influenza A virus; details: for Aggregation of IAV particles (light transmission at 350nm): dilute suspension of IAV, Fig 2A and 2B (8 and 16μg/ml)
[9] = design: method as in PMID 24449257; details: simulation kinetics and energetics, compared with βA 35–40 and βA37-42; cited from earlier work

Sequence	Aggregation of fluorescent E.coli [1]	Viral aggregation by electron microscopy (IAV [2])	Viral aggregates visible by confocal microscopy (IAV [3])	Inhibition of IAV infectivity (neutralization) [4]	Neutrophil uptake of E.coli (human neutrophils [5])	Neutrophil uptake of IAV (human neutrophils [6]; Fig 4)	Neutrophil H2O2 formation in response to IAV, 16μg/ml (human neutrophils [7]; IAV pre-incubated with 16μg/ml peptide, Fig 5A)	Aggregation of IAV (light transmission at 350nm), 16μg/ml (IAV [8]; 16μg/ml of βA peptides, Fig 2B)	Aggregation of IAV particles (light transmission at 350nm) (IAV [8])	Aggregation of IAV particles (light transmission at 350nm) (IAV [8]; listed as 22–42)	Neutrophil uptake of IAV (human neutrophils [6]; Fig 4, listed as 22–42)	Neutrophil H2O2 production in response to IAV (human neutrophils [7]; IAV pre-incubated with peptide, Fig 5B)	Neutrophil uptake of E.coli, 32μg/ml (human neutrophils [5]; 32μg/ml peptide, Fig 7A)	Propensity to assemble into unorganized oligomers [9]
EDVGSNKGAIIGLMVGGVV [βA22-40, βA fragment of residues 22-40, obtained from Genscript]	did not	did not	not	no or minimal antiviral activity	slight but significantly increased uptake at the highest concentration tested	lacked activity	–	–	–	–	–	–	–	–
EDVGSNKGAIIGLMVGGVVIA [βA22-42, βA fragment of residues 22-42, obtained from Genscript]	caused aggregation	marked viral aggregation	Aggregates were visible; also recorded: Aggregates were apparent	significantly inhibited infectivity	marked increase in uptake	greater increases than βA1-42	increased H2O2 formation as compared to IAV alone	statistically significant aggregation	highest activity in this assay	caused aggregation of IAV particles	had the ability to increase viral uptake	–	–	–
GLMVGGVV [βA33-40, βA fragment of residues 33-40, obtained from Genscript]	–	–	–	no or minimal antiviral activity	No significant effects	lacked activity	–	–	–	–	–	–	–	–
MVGGVVIA [βA35-42, 8 amino acid βA fragment of residues 35-42, obtained from Genscript]	–	–	–	significantly inhibited infectivity	–	increased uptake at the highest concentration tested	–	–	caused aggregation of IAV particles	–	–	did not increase H2O2 production	some increase in E.coli uptake	increased propensity
